In patent US7875607B2, “7,8-bicycloakyl-chroman derivatives” (Ampere Life Sciences, Inc., priority 2004, dated 2011):

Legend:
[1] = system: LTB4 release from MPRO cell line; assay: LTB4-cell assay; assay type: cell-based; settings: Mus musculus; differentiated MPRO cells, 1 μM A23187, 1 hour; read-out: EC50, inhibition of LTB4
Description: This procedure was used for measuring the release of the leukotriene LTB4 from a neutrophil cell line using a competitive ELISA technique.
A mouse promyelocytic cell line (MPRO) was used in this assay. These cells are committed immature neutrophils that can be differentiated into mature neutrophils by treatment with 10 μM all-trans retinoic acid for 72 hours
Following 72 hours of differentiation, cells were stimulated with 1 μM of a calcium ionophore (A23187) in the presence or absence of test compound or vehicle for 1 hour at 37° C. After this time, supernatant was removed from the cells and the LTB4 levels were determined following manufacturer's instructions, using a Leukotriene B4 EIA kit from Cayman (Cat # 520111)
The negative controls were media samples from differentiated but unstimulated cells.
The compounds were screened at 5 concentrations in quadruplicate starting at 10 μM

[2] = target: T1, porcine leukocyte 12/15-lipoxygenase (Sus scrofa, UniProt P16469); assay: 12/15-Lipoxygenase enzyme assay; assay type: biochemical; settings: 70 μM arachidonic acid, pH 7.4; read-out: IC50, inhibition of 12/15-Lipoxygenase
T1 sequence (P16469 1-663): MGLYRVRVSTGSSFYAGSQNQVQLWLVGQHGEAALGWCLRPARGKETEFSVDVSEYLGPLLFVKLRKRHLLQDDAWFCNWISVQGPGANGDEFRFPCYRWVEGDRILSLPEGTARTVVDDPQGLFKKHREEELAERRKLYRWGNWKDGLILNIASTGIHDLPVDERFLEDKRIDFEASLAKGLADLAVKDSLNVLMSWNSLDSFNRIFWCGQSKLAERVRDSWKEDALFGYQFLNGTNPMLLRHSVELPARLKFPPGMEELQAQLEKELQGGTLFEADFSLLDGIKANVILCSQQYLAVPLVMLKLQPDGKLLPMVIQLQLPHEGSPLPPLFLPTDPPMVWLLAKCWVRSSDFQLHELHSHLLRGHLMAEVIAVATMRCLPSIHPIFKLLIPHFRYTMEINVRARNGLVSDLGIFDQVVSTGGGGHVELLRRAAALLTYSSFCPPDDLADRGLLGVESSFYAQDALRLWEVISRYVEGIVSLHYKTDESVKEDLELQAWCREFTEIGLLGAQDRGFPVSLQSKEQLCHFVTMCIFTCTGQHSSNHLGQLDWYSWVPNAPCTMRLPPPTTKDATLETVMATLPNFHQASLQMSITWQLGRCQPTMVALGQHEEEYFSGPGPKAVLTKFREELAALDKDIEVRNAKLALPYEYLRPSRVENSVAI
Description: This procedure was used for measuring the enzymatic activity of porcine leukocyte 12/15-lipoxygenase using a calorimetric method based on the ferric oxidation of xylenol orange.
(§1) Porcine Leukocyte 12/15-lipoxygenase (Cayman Cat # 60300) was used in this assay. Test compound and/or vehicle was added to 1.3U 12/15-lipoxygenase in 50 mM Tris-HCl buffer, pH 7.4. The reaction was initiated by addition of 70 μM arachidonic acid in Tris-HCl buffer, pH 7.4, and terminated after a 10 minute incubation at room temperature by addition of FOX reagent (25 mM sulphuric acid, 100 μM xylenol orange, 100 μM iron (II) sulphate, methanol:water 9:1). The yellow color of acidified xylenol orange was converted to a blue color by the lipid hydroperoxide-mediated oxidation of Fe^2+ ions and the interaction of the resulting Fe^3+ ions with the dye. The complex was allowed to form during a 1 hour incubation at room temperature with shaking. Absorbance of the Fe^3+ complex was then measured at […] using a spectrophotometer.
(§2) Negative controls contained enzyme during the incubation step but substrate was not added until after the FOX reagent.
Compounds are screened at 5 concentrations in triplicate starting at 10 μM

[3] = system: LTB4 production in heparinized whole blood; assay: Inhibition of LTB4 production in blood; assay type: cell-based, rat or mouse; settings: 20 μM A23187, read-out: EC50, protection against LTB4
Description: The blood was collected in heparinized tubes or syringes to prevent clotting. Heparin was at 20 USP U/ml. About 3-5 ml of blood was collected per rat and about 0.5-0.75 ml per mouse. This assay required 200 μl/data point, therefore a 96 well plate requires 20 ml.
The Calcium ionophore A23187 was prepared as a 10 mM stock solution in DMSO and the test agent is prepared in DMSO so that <1 μl DMSO will be added to the well
200 μl blood per well were added in a round bottom 96 well clear plastic 96 well plate followed by the test agent. After 10 minutes incubation at 37° C., 5 μl of Calcium ionophore A23187 for a final concentration of 20 μM were added and mixed, and further incubated for 30 min. After 1000×g centrifugation to pellet blood cells, 20 μl plasma was carefully removed.
20 μl plasma were added to 80 μl methanol to precipitate protein and mixed. This was further incubated 10 min. at room temperature and centrifuged at 1000×g to pellet protein.
Following manufacturer's instructions, the commercially available EIA kit was used to subsequently measure the LTB4 production in the samples. The LTB4 levels produced in the vehicle control sample were then compared to those in which the test compound had been added. From this a percent inhibition of LTB4 production by each concentration of test compound was calculated and the IC50 for inhibition of LTB4 production for each test compound was determined.

[4] = target: T2, human recombinant 5-lipoxygenase (Homo sapiens, UniProt P09917); assay: 5-Lipoxygenase enzyme assay; assay type: biochemical; settings: 70 μM arachidonic acid, pH 7.4
T2 construct: purchased Cayman 60402
T2 sequence (P09917 1-674): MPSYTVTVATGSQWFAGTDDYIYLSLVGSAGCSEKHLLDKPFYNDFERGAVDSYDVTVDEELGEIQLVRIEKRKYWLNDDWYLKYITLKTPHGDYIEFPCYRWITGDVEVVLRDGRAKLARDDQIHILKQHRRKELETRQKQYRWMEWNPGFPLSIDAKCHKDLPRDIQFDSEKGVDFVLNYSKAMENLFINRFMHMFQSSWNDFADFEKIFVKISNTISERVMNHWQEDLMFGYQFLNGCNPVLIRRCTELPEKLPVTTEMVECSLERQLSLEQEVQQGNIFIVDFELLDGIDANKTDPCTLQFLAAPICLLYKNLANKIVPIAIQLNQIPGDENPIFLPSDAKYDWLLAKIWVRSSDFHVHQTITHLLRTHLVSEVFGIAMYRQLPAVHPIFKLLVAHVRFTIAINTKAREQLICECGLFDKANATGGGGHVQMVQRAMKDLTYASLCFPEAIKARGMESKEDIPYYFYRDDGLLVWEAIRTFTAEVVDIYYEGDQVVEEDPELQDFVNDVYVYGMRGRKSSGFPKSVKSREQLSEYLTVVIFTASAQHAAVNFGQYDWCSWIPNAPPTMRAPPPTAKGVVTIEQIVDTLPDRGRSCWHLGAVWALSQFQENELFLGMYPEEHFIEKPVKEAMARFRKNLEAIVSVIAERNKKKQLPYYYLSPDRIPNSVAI
Description: This procedure was used for measuring the enzymatic activity of human recombinant 5-lipoxygenase using a […] method based on the ferric oxidation of xylenol orange.
as §1, with “Human recombinant 5-lipoxygenase” for “Porcine Leukocyte 12/15-lipoxygenase”, “60402)” for “60300)”, “The test” for “Test”, “0.5U 5-lipoxygenase” for “1.3U 12/15-lipoxygenase”
as §2
Compounds were screened at 5 concentrations in triplicate starting at 10 μM

[5] = system: dopaminergic neuronal cell line; assay: High glutamate-induced oxidative stress assay (HGOS); assay type: cell-based; settings: Mus musculus; 30 mM glutamate, 16 hrs; read-out: EC50, protection against HGOS cell injury and cell death
Text: Protection against redox stress can be further evaluated in cell culture using high glutamate induced oxidative stress (HGOS) in mouse dopaminergic cell lines. The cytotoxic effect of glutamate is not due to excitotoxicity, as this cell line is devoid of inotropic glutamate receptors. Rather, the glutamate-induced toxicity of dopaminergic cells is associated with an inhibition of cystine transport which subsequently leads to depletion of intracellular glutathione (GSH) levels (Murphy T. H., et al. Neuron 2, 1547-1558, 1989), activation of neuronal 12-lipoxygenase (Li, Y. et al., Neuron 19, 453-463, 1997), increased ROS production (Tan S. et al., J. Cell Biol. 141, 1423-1432, 1998) and elevated intracellular Ca^2+ (Li, Y. et al., see supra). Some molecules were measured for their ability to protect cells against glutamate-induced stress and the assay is detailed in Examples.
This procedure was used to induce high glutamate-induced oxidative stress (HGOS) in a dopaminergic neuronal cell line. Using this assay the potency and efficacy of test articles against HGOS neuronal cell injury and cell death was established in a high throughput manner.
The cells were seeded into 96-well plates at a density of 2000 per well and left to grow for 72 hours in a 33° C. incubator with 5% CO2 in air atmosphere. The passage number of the cells for each assay experiment were no later than p11 in order to minimize experimental variation.
All compounds were dissolved in DMEM-No Glu containing 1 mM glucose, 30 mM glutamate and 1×Pen/Strep. DMEM-No Glu with 1 mM glucose and 1×P/S was used as the negative control, DMEM-No Glucose with 1 mM glucose, […] was used as a positive control and 100 μM Glutathione was added to the positive control as a standard. All of the procedures for this involving the making and dilution of compounds were performed using aseptic conditions and with minimal light.
The plates were removed from the incubator and examined under the microscope for morphological appearance and density. Using an aseptic technique and an 8-channel aspirator the media was carefully removed from the cells and replaced with 200 μl of 1×HBSS. This was done as quickly as possible to prevent the cells drying out. The plates were then placed in the humidified 37° C. incubators of the Biomek 2000 Side Loader. Four plates were washed at a time so as to minimize the time that the cells were sitting in 1×HBSS prior to addition of the compound test solution.
The Beckman Biomek workstations were used to load the compounds and controls from the mother plates onto the cell plates that were prewashed with HBSS under sterile conditions. The plates were incubated in the upper HTS incubator at 37° C. in 5% CO2 for exactly 16 hrs. The following day, using the Beckman Biomek workstations, the plates were removed from the incubator. Using Cell Tracker Addition, the compounds were removed from the plates, washed once with […] of pre-warmed 1×HBSS and then 100 μL of 5 μM Cell Tracker Green was added to each well. The plates were incubated at 37° C. for 30 min to allow the dye to enter the cell and be cleaved by the esterases. After washing the cells twice with prewarmed 1×HBSS, the plates were read with the 485 excitation; 538 emission filter pair on a Fluoroskan.

SMILES | EC50 [1] | IC50 [2] | EC50 [3] | IC50 [4] | EC50 [5]
Cc1c(O)c2c(c3c1CCC(C)(C)O3)C1CCC2CC1 [2,2,5-Trimethyl-3,4,7,8,9,10-hexahydro-7,10-ethano-2H-benzo[h]chromen-6-ol] | ≤ 5 µM | ≤ 10 µM | – | – | –
CC1(C)CCc2cc(O)c3c(c2O1)C1CCC3C1 (stereo not drawn) [2,2-Dimethyl-3,4,7,8,9,10-hexahydro-7,10-methano-2H-benzo[h]chromen-6-ol] | ≤ 5 µM | ≤ 10 µM | ≤ 10 µM | ≤ 5 µM | –
CC1(CCCSc2ccncc2)CCc2cc(O)c3c(c2O1)C1CCC3C1 (stereo not drawn) [2-Methyl-2-[3-(pyridin-4-ylsulfanyl)-propyl]-3,4,7,8,9,10-hexahydro-7,10-methano-2H-benzo[h]chromen-6-ol] | ≤ 5 µM | ≤ 10 µM | – | ≤ 5 µM | –
CC1(c2nccs2)CCc2cc(O)c3c(c2O1)C1CCC3C1 (stereo not drawn) [2-Methyl-2-thiazol-2-yl-3,4,7,8,9,10-hexahydro-7,10-methano-2H-benzo[h]chromen-6-ol] | ≤ 5 µM | ≤ 10 µM | – | – | –
CC1(c2cccs2)CCc2cc(O)c3c(c2O1)C1CCC3C1 (stereo not drawn) [2-methyl-2-thiophen-2-yl-3,4,7,8,9,10-hexahydro-7,10-methano-2H-benzo[h]chromen-6-ol] | ≤ 5 µM | ≤ 10 µM | ≤ 10 µM | – | ≤ 1 µM
